US9328083B2, “2-aminated methylene or 2-esterified methylene tanshinone derivatives, and preparation method and application thereof” (HANGZHOU BENSHENG PHARMACEUTICAL CO., LTD., priority 2011, dated 2016)
≈ marks a conversion by molar mass, not a printed value.

How the values were obtained:
[1] = tested on: RPMI8226 (multiple myeloma); assay: MTT growth inhibition of multiple myeloma cells, 72 h; assay type: cell-based, human; conditions: Homo sapiens, RPMI 8226, 72 h; for IC50: read-out: IC50; for IC90: read-out: IC90
Procedure: Myeloma cell lines: RPMI8226 (multiple myeloma), purchased from Fuxiang Bio-tech Co. Ltd., Shanghai, China.
(§1) The standard sample of tanshinone I (TA) and the 2-aminated methylene or 2-esterified methylene tanshinone I derivatives of the present invention are sufficiently dissolved with dimethylsulfoxide to produce a stock solution of 10 mg/mL, which is refrigerated at 4° C. and stored in dark, and is diluted with a cell culture medium to the desired concentration prior to experimentation.
(§2) Obtaining 6000 well-growing myeloma cells as above and inoculating them into wells of a 96-well cell culture plate. The culture medium is the 1640 cell culture medium containing 10% fetal bovine serum. After adding the 2-aminated methylene or 2-esterified methylene tanshinone I derivatives of different concentrations and mixing uniformly, placing the plate in a carbon dioxide cell incubator (5% CO2) at 37° C. and incubated for 72 hours. Then the viable cell concentration is determined by MTT method.

[2] = tested on: U87 MG (malignant glioma cell); assay: MTT growth inhibition of human solid tumor cells, 72 h; assay type: cell-based; conditions: Homo sapiens, U-87 MG, U87-MG, 72 h; for IC50: read-out: IC50; for IC90: read-out: IC90
Procedure: (§3) Hep-2 (laryngeal carcinoma), A549 (human lung cancer), CaES-17 (esophageal cancer cell), PC-3 (prostate cancer), CNE (nasopharyngeal carcinoma cell), and SK-OV-3 (ovarian cancer cell), all of which are purchased from China Center For Type Culture Collection; RKO (human colon adenocarcinoma cell), MGC 803 (human gastric cancer cell), MG63 (osteosarcoma) and U87 MG (malignant glioma cell), all of which are purchased from Fuxiang Bio-tech Co. Ltd., Shanghai, China; PANC-1 (pancreatic cancer), Hep G2 (human liver cancer cell), Becap37 (human breast cancer cell) and Hela (human cervical cancer cell), all of which are donated by Cancer Research Institute of Zhejiang University, China.
as §1
(§4) Obtaining 4000 well-growing human solid tumor cells and inoculating them into wells of a 96-well cell culture plate. The culture medium is DMEM High Glucose cell culture medium containing 10% fetal bovine serum. The plate is placed in a carbon dioxide cell incubator (5% CO2) at 37° C. and incubated for 24 hours. After adding the 2-aminated methylene or 2-esterified methylene tanshinone I derivatives of different concentrations and mixing uniformly, the plate is placed in a carbon dioxide cell incubator (5% CO2) at 37° C. and incubated for 72 hours. Then the viable cell concentration is determined by the MTT method.

[3] = tested on: MGC 803 (human gastric cancer cell); assay: as above; assay type: cell-based; conditions: Homo sapiens, MGC-803, 72 h; for IC50: read-out: IC50; for IC90: read-out: IC90
Procedure: as §3, §1, §4

[4] = tested on: CNE (nasopharyngeal carcinoma cell); assay: as above; assay type: cell-based; conditions: Homo sapiens; for IC50: read-out: IC50; for IC90: read-out: IC90
Procedure: as §3, §1, §4

[5] = tested on: Hep-2 (laryngeal carcinoma); assay: as above; assay type: cell-based; conditions: Homo sapiens, HEp-2, 72 h; for IC50: read-out: IC50; for IC90: read-out: IC90
Procedure: as §3, §1, §4

[6] = tested on: Hep G2 (human liver cancer cell); assay: as above; assay type: cell-based; conditions: Homo sapiens, HepG2, Hep G2, 72 h; for IC50: read-out: IC50; for IC90: read-out: IC90
Procedure: as §3, §1, §4

PC-3 (prostate cancer) = assay: as above; assay type: cell-based; conditions: Homo sapiens, PC-3, 72 h; for IC50: read-out: IC50; for IC90: read-out: IC90
Procedure: as §3, §1, §4

[7] = tested on: CaES-17 (esophageal cancer cell); assay: as above; assay type: cell-based; conditions: Homo sapiens, CaEs17, CaEs-17, 72 h; for IC50: read-out: IC50; for IC90: read-out: IC90
Procedure: as §3, §1, §4

A549 (human lung cancer) = assay: as above; assay type: cell-based; conditions: Homo sapiens, A549, 72 h; for IC50: read-out: IC50; for IC90: read-out: IC90
Procedure: as §3, §1, §4

[8] = tested on: Hela (human cervical cancer cell); assay: as above; assay type: cell-based; conditions: Homo sapiens, HeLa, 72 h; for IC50: read-out: IC50; for IC90: read-out: IC90
Procedure: as §3, §1, §4

[9] = tested on: PANC-1 (pancreatic cancer); assay: as above; assay type: cell-based; conditions: Homo sapiens, PANC-1, 72 h; for IC50: read-out: IC50; for IC90: read-out: IC90
Procedure: as §3, §1, §4

[10] = tested on: Becap37 (human breast cancer cell); assay: as above; assay type: cell-based; conditions: Homo sapiens, Becap-37, 72 h; for IC50: read-out: IC50; for IC90: read-out: IC90
Procedure: as §3, §1, §4

[11] = tested on: RKO (human colon adenocarcinoma cell); assay: as above; assay type: cell-based; conditions: Homo sapiens; for IC50: read-out: IC50; for IC90: read-out: IC90
Procedure: as §3, §1, §4

MG63 (osteosarcoma) = assay: as above; assay type: cell-based; conditions: Homo sapiens, MG-63, 72 h; for IC50: read-out: IC50; for IC90: read-out: IC90
Procedure: as §3, §1, §4

[12] = tested on: SK-OV-3 (ovarian cancer cell); assay: as above; assay type: cell-based; conditions: Homo sapiens, SK-OV-3, 72 h; for IC50: read-out: IC50; for IC90: read-out: IC90
Procedure: as §3, §1, §4

[13] = tested on: H9 (acute lymphoblastic leukemia, ALL); assay: MTT growth inhibition of leukemia cells, 72 h; assay type: cell-based, human; conditions: Homo sapiens, H9, 72 h; for IC50: read-out: IC50; for IC90: read-out: IC90
Text: (§5) Leukemia cell lines: leukemia cell lines: K562/adr (drug-resistant, chronic myeloid leukemia, CML), NB4 (acute promyelocytic leukemia, AML), Kasumi-1 (acute myeloid leukemia M2 type, AML-M2), and Jurkat (acute lymphoblastic leukemia, ALL), all of which are donated by Cancer Research Institute of Zhejiang University, China; and H9 (acute lymphoblastic leukemia, ALL), which is purchased from China Center for Type Culture Collection (CCTCC).
as §1
as §2, with “leukemia” for “myeloma”, “cells” for “cells as above”, “RPMI-1640” for “1640”, “adding on the second day” for “adding”

[14] = tested on: Kasumi-1 (acute myeloid leukemia M2 type, AML-M2); assay: MTT growth inhibition of leukemia cells, 72 h; assay type: cell-based, human; conditions: Homo sapiens, Kasumi-1, 72 h; for IC50: read-out: IC50; for IC90: read-out: IC90
Text: as §5, §1
as §2, with “leukemia” for “myeloma”, “cells” for “cells as above”, “RPMI-1640” for “1640”, “adding on the second day” for “adding”

[15] = tested on: NB4 (acute promyelocytic leukemia, AML); assay: MTT growth inhibition of leukemia cells, 72 h; assay type: cell-based, human; conditions: Homo sapiens, NB4, 72 h; for IC50: read-out: IC50; for IC90: read-out: IC90
Text: as §5, §1
as §2, with “leukemia” for “myeloma”, “cells” for “cells as above”, “RPMI-1640” for “1640”, “adding on the second day” for “adding”

[16] = tested on: K562/adr (drug-resistant, chronic myeloid leukemia, CML); assay: MTT growth inhibition of leukemia cells, 72 h; assay type: cell-based, human; conditions: Homo sapiens, K562/Adr; for IC50: read-out: IC50; for IC90: read-out: IC90
Text: as §5, §1
as §2, with “leukemia” for “myeloma”, “cells” for “cells as above”, “RPMI-1640” for “1640”, “adding on the second day” for “adding”

[17] = tested on: Jurkat (acute lymphoblastic leukemia, ALL); assay: MTT growth inhibition of leukemia cells, 72 h; assay type: cell-based, human; conditions: Homo sapiens, 72 h; for IC50: read-out: IC50; for IC90: read-out: IC90
Text: as §5, §1
as §2, with “leukemia” for “myeloma”, “cells” for “cells as above”, “RPMI-1640” for “1640”, “adding on the second day” for “adding”

IC50 [1]	IC90 [1]	IC50 [2]	IC90 [2]	IC50 [3]	IC90 [3]	IC50 [4]	IC90 [4]	IC50 [5]	IC90 [5]	IC50 [6]	IC90 [6]	IC50 (PC-3 (prostate cancer))	IC90 (PC-3 (prostate cancer))	IC50 [7]	IC90 [7]	IC50 (A549 (human lung cancer))	IC90 (A549 (human lung cancer))	IC50 [8]	IC90 [8]	Compound	other results
0.12 µg/mL (≈ 0.231 µM)	0.87 µg/mL (≈ 1.67 µM)	1.46 µg/mL (≈ 2.8 µM)	3.65 µg/mL (≈ 7.01 µM)	1.5 µg/mL (≈ 2.88 µM)	9.94 µg/mL (≈ 19.1 µM)	2.02 µg/mL (≈ 3.88 µM)	3.61 µg/mL (≈ 6.93 µM)	1.59 µg/mL (≈ 3.05 µM)	3.77 µg/mL (≈ 7.24 µM)	0.71 µg/mL (≈ 1.36 µM)	3.85 µg/mL (≈ 7.4 µM)	1.68 µg/mL (≈ 3.23 µM)	9.92 µg/mL (≈ 19.1 µM)	1.84 µg/mL (≈ 3.53 µM)	3.98 µg/mL (≈ 7.65 µM)	1.07 µg/mL (≈ 2.06 µM)	3.7 µg/mL (≈ 7.11 µM)	0.89 µg/mL (≈ 1.71 µM)	1.84 µg/mL (≈ 3.53 µM)	Cc1c(CN(C)CCOC(=O)CNC(=O)OC(C)(C)C)oc2c1C(=O)C(=O)c1c-2ccc2c(C)cccc12 [BS-TA-72]	IC50 [9]: 0.75 µg/mL (≈ 1.44 µM); IC90 [9]: 8.96 µg/mL (≈ 17.2 µM); IC50 [10]: 1.02 µg/mL (≈ 1.96 µM); IC90 [10]: 1.94 µg/mL (≈ 3.73 µM); IC50 [11]: 0.25 µg/mL (≈ 0.48 µM); IC90 [11]: 2.38 µg/mL (≈ 4.57 µM); IC50 (MG63 (osteosarcoma)): 1.08 µg/mL (≈ 2.07 µM); IC90 (MG63 (osteosarcoma)): 2.56 µg/mL (≈ 4.92 µM); IC50 [12]: 5.91 µg/mL (≈ 11.4 µM); IC90 [12]: 10.9 µg/mL (≈ 21 µM); IC50 [13]: 0.45 µg/mL (≈ 0.864 µM); IC90 [13]: 1.6 µg/mL (≈ 3.07 µM); IC50 [14]: 0.28 µg/mL (≈ 0.538 µM); IC90 [14]: 0.47 µg/mL (≈ 0.903 µM); IC50 [15]: 0.35 µg/mL (≈ 0.672 µM); IC90 [15]: 0.71 µg/mL (≈ 1.36 µM); IC50 [16]: 1.5 µg/mL (≈ 2.88 µM); IC90 [16]: 2 µg/mL (≈ 3.84 µM); IC50 [17]: 0.31 µg/mL (≈ 0.595 µM); IC90 [17]: 0.99 µg/mL (≈ 1.9 µM)
0.38 µg/mL (≈ 0.82 µM)	1.55 µg/mL (≈ 3.34 µM)	1.19 µg/mL (≈ 2.57 µM)	3.44 µg/mL (≈ 7.42 µM)	0.84 µg/mL (≈ 1.81 µM)	4.9 µg/mL (≈ 10.6 µM)	1.38 µg/mL (≈ 2.98 µM)	3.7 µg/mL (≈ 7.98 µM)	0.81 µg/mL (≈ 1.75 µM)	3.21 µg/mL (≈ 6.93 µM)	1.39 µg/mL (≈ 3 µM)	4.64 µg/mL (≈ 10 µM)	1.73 µg/mL (≈ 3.73 µM)	7.04 µg/mL (≈ 15.2 µM)	1.14 µg/mL (≈ 2.46 µM)	1.86 µg/mL (≈ 4.01 µM)	1.72 µg/mL (≈ 3.71 µM)	4.79 µg/mL (≈ 10.3 µM)	1 µg/mL (≈ 2.16 µM)	3.81 µg/mL (≈ 8.22 µM)	Cc1c(CN(C)CCOC(=O)CCC(=O)O)oc2c1C(=O)C(=O)c1c-2ccc2c(C)cccc12 [BS-TA-73]	IC50 [9]: 1.07 µg/mL (≈ 2.31 µM); IC90 [9]: 5 µg/mL (≈ 10.8 µM); IC50 [10]: 1.06 µg/mL (≈ 2.29 µM); IC90 [10]: 1.91 µg/mL (≈ 4.12 µM); IC50 [11]: 0.2 µg/mL (≈ 0.432 µM); IC90 [11]: 0.87 µg/mL (≈ 1.88 µM); IC50 (MG63 (osteosarcoma)): 1.01 µg/mL (≈ 2.18 µM); IC90 (MG63 (osteosarcoma)): 3.71 µg/mL (≈ 8 µM); IC50 [12]: 3.54 µg/mL (≈ 7.64 µM); IC90 [12]: 7.27 µg/mL (≈ 15.7 µM); IC50 [13]: 0.19 µg/mL (≈ 0.41 µM); IC90 [13]: 0.97 µg/mL (≈ 2.09 µM); IC50 [14]: 0.27 µg/mL (≈ 0.583 µM); IC90 [14]: 0.73 µg/mL (≈ 1.58 µM); IC50 [15]: 0.21 µg/mL (≈ 0.453 µM); IC90 [15]: 0.68 µg/mL (≈ 1.47 µM); IC50 [16]: 1.38 µg/mL (≈ 2.98 µM); IC90 [16]: 2.74 µg/mL (≈ 5.91 µM); IC50 [17]: 0.98 µg/mL (≈ 2.11 µM); IC90 [17]: 3.4 µg/mL (≈ 7.34 µM)
